From publication PMC11513920, “Building Metabolically Stable and Potent Anti-HIV Thioether-Lipid Analogues of Tenofovir Exalidex: A thorough Pharmacological Analysis” (Journal of Medicinal Chemistry, 2024)
Like-named read-outs stand apart in the source and are kept apart here.

Tests used:
[1] = Human plasma stability; type: in vitro ADME; conditions: for remaining at 4 h, 3 μM / half-life at 3 μM: both sexes, human, plasma; for half-life at 3 μM: 37 °C, 240 min course, read-out: human plasma t1/2
Experimental: Human plasma (lithium heparin (LiHep) mixed, gender pooled, 0.2 μm filtered) and mouse plasma (BALB/C, LiHep mixed, male pooled, 0.2 μm filtered) were purchased from BioIVT. Procaine (Sigma-Aldrich) served as a positive control for both human and mouse plasma experiments. […] Next, the human or mouse plasma (994 μL) was aliquoted into 1.5 mL Eppendorf tubes with duplicates (reactions A and B) being prepared for each compound. The plasma was then incubated at 37 °C for 10 min. […] This procedure provided duplicate experiments with a final volume of 1000 μL (<0.2% organic solvent content) and a final test compound concentration of 3 μM. Aliquots (100 μL) were removed from each reaction mixture at 0, 30, 60, 120, and 240 min time intervals and quenched with 150 μL of cold ISTD solution (2 μM 7-ethoxy-d5-coumarin in MeOH). […] The positive control reaction was conducted at a final volume of 1000 μL for a single run of each time point. Finally, the negative control experiment was conducted with test compounds in Dulbecco’s phosphate buffered saline without calcium and magnesium (DPBS, Fisher Scientific, 143 μL) and analyzed at the 240 min time point.
Plasma Stability Assay Setup Example
Test Compound: 994 µL Human or Mouse Plasma + 6.0 µL TC (500 µM, Vial A).
994 µL Human or Mouse Plasma + 6.0 µL TC (500 µM, Vial B).
Positive Control: 994 µL Human or Mouse Plasma + 6.0 µL Procaine (500 µM).
Negative Control: 142 µL DPBS (1X, pH 7.1-7.3) + 0.9 µL TC (500 µM).
Quenching Mixture: 150 µL MeOH with ISTD (2 µM d5-7-ethoxycoumarin).
Final Volume After Quenching: 250 µL (100 µL from reaction mixture and 150 µL quencher
solution; ISTD final concentration of 1.2 µM).
Human Plasma Stability of Compound 2a at 37 °C
Figure S29. In vitro human plasma stability of 2a (5 points over 240 min) with procaine serving

[2] = HepaRG cellular metabolic stability; conditions: human, other cell line; for hepatocyte CLint at 20 μM: HepaRG Clint,u, calculated from cellular t1/2; for half-life at 20 μM: HepaRG t1/2, after 3 h loading at 20 μM, 37 °C
Description: Naturally, due the metabolic complexity of HepaRG cells, we specifically analyzed prodrug cellular uptake and stability, as represented by Cmax and intrinsic clearance (Clint,u) accordingly (Figure 7 and Table 9).
The HepaRG cell line (HPRGC10, Thermo Fisher Scientific) was used to evaluate the cellular permeability and metabolic stability for select final compounds in vitro. The cells were initially thawed with working media composed of HepaRG Thaw, Plate, & General Purpose Medium Supplement (HPRG670), Williams Medium E (100 mL), and GlutaMax (1 mL), all purchased from Thermo Fisher Scientific. […] After the thawing medium was aspirated from each well, the cells were cultured for an additional 6 days with working media consisting of HepaRG Maintenance/Metabolism Medium Supplement (HPRG720), Williams Medium E (500 mL), and GlutaMax (1 mL), all purchased from Thermo Fisher Scientific. Upon completing the 7-day culture period, HepaRG cells were plated in enough wells to allow for duplicate analysis of prodrugs in two independent cellular uptake or metabolic stability experiments. All studied compounds were formulated with human serum albumin (HSA, 5:1 compound to HSA molar ratio) and subsequently diluted to a 20 μM final concentration with assay medium composed of serum-free INVITROGRO HI Medium and TORPEDO Antibiotic Mix purchased from BioIVT. For cellular uptake determinations, the maintenance/metabolism medium was first aspirated from each well, and then the plated cells were spiked with 1.0 mL of test compound stock solution. Subsequently, the plate was incubated at 37 °C under 5% CO2 environment over the desired time course (seven data points/compound). Blank wells not treated with prodrug were included in assay runs as controls and initial time points (0 min). At each time point, the test compound solution was removed from the appropriate wells, and the plated cells were washed with 1.0 mL of DPBS twice. The HepaRG cells were then extracted with 500 μL of cold ISTD solution (1 μM 7-ethoxy-d5-coumarin in 70/30 MeOH/H2O), and the quenched aliquots were centrifuged at 15,000 g for 10 min at 4 °C. […] After obtaining prodrug Cmax and Tmax values from the cellular uptake assay, HepaRG metabolic stability was then assessed. Following the initial 7-day culture procedure, the maintenance/metabolism medium was aspirated from each well, and the plated cells were spiked with 1.0 mL of test compound stock solution. […] The test compound solution was then removed from each well and replaced with untreated dilution medium (i.e., serum-free INVITROGRO HI Medium and TORPEDO Antibiotic Mix), initializing the stability determination. The HepaRG plate was once more incubated at 37 °C under 5% CO2 atmosphere over the desired time course (nine data points/compound), and sample preparation and analysis were handled in identical fashion to cellular uptake experiments.

[3] = Mouse tissue (liver, kidney, brain) pharmacokinetics after oral dose; type: in vivo, male C57BL/6 mice; conditions: for TFV in brain tissue: brain, 1, 4 and 24 h after p.o. 10 mg/kg of prodrug, LLOQ 4.84 ng/mL (9.67 for 16h); for AUC(0-t) at 24 h: read-out: AUC0–24h; for concentration at 24 h / mean prodrug concentration in brain: 24 h; for mean prodrug concentration in brain: BLQ = below limit of quantitation
Experimental: To compare the in vivo PK profiles to TXL and our previously reported drug lead 1 (Tables S19 and S26),[39] one group of male C57BL/6 mice were administered a single oral dose (p.o., 10 mg/kg) of 2a, 16g, or 16h (refer to Experimental Methods). Additionally, a separate group of mice were given a single intravenous dose (i.v., 3 mg/kg) of each prodrug to obtain plasma clearance (Cl), volume of distribution (Vd), and oral bioavailability data. Blood was sampled at 8 time points over 8 h (i.v.) or 24 h (p.o.) postdose, and plasma was isolated via centrifugation. Tissues (liver, kidney, and brain) were also harvested and homogenized at 3 time points over 24 h after oral dose. The concentrations of prodrug and TFV metabolite in each of these samples was then quantified using LC–MS/MS methodology.
Healthy male C57BL/6 mice (8–12 weeks old) weighing 20–30 g were procured from Global, India. Three mice were housed in each cage. Temperature and humidity were maintained at 22 ± 3 °C and 30–70%, respectively, and illumination was controlled to provide for 12 h light and 12 h dark cycles. Temperature and humidity were recorded by an autocontrolled data logger system. All animals were provided a laboratory rodent diet (Envigo Research private Ltd., Hyderabad). Reverse osmosis H2O treated with ultraviolet light was provided ad libitum.
Male mice were divided into two groups (n = 18 total, n = 9 per treatment group, n = 3 per time point, sparse sampling). One group was intravenously administered a solution of 2a, 16g, and 16h in 10% PEG-300, 10% Solutol HS-15, and 80% saline at 3 mg/kg with a dosing volume of 5 mL/kg. The second group was administered a solution of 2a, 16g, and 16h in 10% EtOH and 90% olive oil at 10 mg/kg via oral gavage with a dosing volume of 10 mL/kg.
Blood samples (approximately 60 μL) were collected from retro-orbital plexus under light isoflurane anesthesia such that the samples were obtained predose, as well as at eight time points post dose: 0.1, 0.25, 0.5, 1, 2, 4, 6, and 8 (i.v.) and 0.25, 0.5, 1, 2, 4, 8, 12, and 24 h (p.o.). Immediately after blood collection, plasma samples were harvested by centrifugation at 4000 rpm and 4 °C for 10 min and stored at −70 °C until LC–MS/MS analysis. Following blood collection from p.o. group, liver, kidney, and brain samples were collected (n = 3 per treatment group per time point) at 1, 4, and 24 h post dose. After isolation, tissue samples were rinsed three times with ice-cold saline and dried with blotting paper. Next, the tissue samples were homogenized using ice-cold PBS (pH = 7.4), and the resulting homogenates were stored below −70 °C until LC-MS/MS analysis. The total homogenate volume was 3 times the brain weight and 5 times the liver and kidney weight.
Areas under the concentration–time curves (AUC0–8h and AUC0–24h) were calculated via the linear trapezoidal rule[65] using GraphPad Prism v9. Furthermore, terminal elimination rate constants k were determined using linear regression (slope = −k) of the terminal portion of semilog-transformed concentration–time curves (Figures S44, S45, S47, S48, S50, and S51).

[4] = relative percent remaining at 240 min
[5] = male, C57BL/6, mouse, brain, po, p.o. 10 mg/kg, read-out: mean prodrug concentration in brain
[6] = male, C57BL/6, mouse, kidney, po, p.o. 10 mg/kg, read-out: mean prodrug concentration in kidney
[7] = male, C57BL/6, mouse, liver, po, p.o. 10 mg/kg, read-out: mean prodrug concentration in liver
[8] = male, C57BL/6, mouse, po, brain, prodrug, p.o. 10 mg/kg
[9] = male, C57BL/6, mouse, po, kidney, prodrug, p.o. 10 mg/kg
[10] = male, C57BL/6, mouse, po, liver, prodrug, p.o. 10 mg/kg

Compound | remaining at 4 h, 3 μM [1, 4] [%] | half-life at 3 μM [1] [h] | hepatocyte CLint at 20 μM [2] [µL/min/1e6 cells] | half-life at 20 μM [2] [h] | TFV in brain tissue [3] | concentration at 1 h [3, 5] [ng/mL] | concentration at 4 h [3, 5] [ng/mL] | concentration at 1 h [3, 6] [ng/mL] | concentration at 4 h [3, 6] [ng/mL] | concentration at 24 h [3, 6] [ng/mL] | concentration at 1 h [3, 7] [ng/mL] | concentration at 4 h [3, 7] [ng/mL] | concentration at 24 h [3, 7] [ng/mL] | Cmax at 24 h [3, 8] [ng/mL] | AUC(0-t) at 24 h [3, 8] [ng·h/mL] | Cmax at 24 h [3, 9] [ng/mL] | AUC(0-t) at 24 h [3, 9] [ng·h/mL] | Cmax at 24 h [3, 10] [ng/mL] | AUC(0-t) at 24 h [3, 10] [ng·h/mL] | mean prodrug concentration in brain ([3]; p.o. 10 mg/kg) | also measured
C[C@H](Cn1cnc2c(N)ncnc21)OCP(=O)(O)OCCCSCCCCCCCCCCCCC1CCCCC1.N [16h] | > 95 | > 4 | 18 to 19 | 1.12 to 1.18 | BLQ | 16.1 | 8.39 | 279 | 795 | 123 | 1540 | 2150 | 32.4 | 16.2 | 36.8 | 795 | 10800 | 2150 | 27300 | BLQ | Tmax at 24 h [3, 8]: 1 h
CCCCCCCCCCCCCCCCSCCCOP(=O)(O)CO[C@H](C)Cn1cnc2c(N)ncnc21.N [2a] | 95 | > 4 | 14.1 | 1.49 ± 0.00667 | BLQ | 43.8 | 2.19 | 581 | 385 | 44.4 | 1250 | 395 | 3.95 | 43.8 | 69 | 581 | 5740 | 1250 | 6450 | BLQ | human plasma % remaining [1, 4]: > 95%; Tmax [3, 8]: 1 h; Tmax [3, 9]: 1 h; Tmax [3, 10]: 1 h
C[C@H](Cn1cnc2c(N)ncnc21)OCP(=O)(O)OCCCSCCCCCCCCCCCCc1ccc(F)cc1.N [16g] | > 95 | > 4 | 27 | 0.783 | BLQ | 3.24 | 5.74 | 310 | 602 | 25.4 | 5330 | 4810 | 24.8 | 5.74 | 13.5 | 602 | 7650 | 5330 | 63600 | BLQ | Tmax [3, 10]: 1 h
